Results as given in PMC9519869, “Synthesis, biological evaluation, and molecular modeling studies of new benzoxazole derivatives as PARP-2 inhibitors targeting breast cancer” (Scientific Reports, 2022).

Key:
MDA-MB-231 = assay: In vitro cytotoxicity screening, MTT assay; settings: Homo sapiens, MDA-MB-231, 24 h, read-out: In vitro Cytotoxicity (IC50, µM) MDA-MB-231
Text: Two human breast cancer cell lines, namely, MDA-MB-231 and MCF-7 were obtained from American Type Culture Collection (ATCC) via a holding company for biological products and vaccines (VACSERA), Cairo, Egypt. […] The reagents used were RPMI-1640 medium, MTT, DMSO (sigma co., St. Louis, USA), and Fetal bovine serum (GIBCO, UK). […] MTT is a colorimetric assay based on the conversion of the yellow tetrazolium bromide (MTT) to a purple formazan derivative by mitochondrial succinate dehydrogenase in viable cells. Cell lines were cultured in RPMI-1640 medium with 10% foetal bovine serum. Antibiotics added were 100 units/ml penicillin and 100 µg/ml streptomycin maintained at 37 °C in a 5% CO2 incubator. The cell lines were seeded at a density of approximately 1.0 × 10 ^4 cells/well in a 96-well plate at 37 °C for 48 h under 5% CO2. Different concentrations of compounds were added and incubated for 24 h. After 24 h of drug treatment, 20 µl of MTT staining solution at 5 mg/ml was added to each well and incubated for 4 h at 37 °C. After 4 h, 100 µl of dimethyl sulfoxide (DMSO) were added into each well to dissolve the purple formazan crystals formed. The absorbance was recorded at 570 nm using a plate reader (EXL 800, USA). The relative cell viability in percentage was calculated as (A570 of treated samples/A570 of untreated sample) X 100 [22],[23].

PARP-2 enzyme = biological target: T1, PARP-2 enzyme (Homo sapiens, UniProt Q9UGN5); assay: Poly (ADP-ribose) polymerase 2 (PARP-2) inhibition assay (colorimetric kit); assay type: biochemical; settings: for IC50: in vitro enzyme assay
T1 construct: purchased BPS Bioscience 80,581
Method: Results were expressed as IC50 values (Table 2).
The PARP-2 inhibitory activity of the test compounds was assayed using PARP-2 Colorimetric Activity Assay Kit (BPS Bioscience, catalog 80,581, San Diego, CA, USA) following the manufacturer’s protocol. Briefly, histone protein mixture was coated on a 96-well microtiter plate and incubated at 4 °C overnight, washed with phosphate-buffered saline with tween-20 (PBST) three times then, the wells were blocked by adding blocking buffer 3 and incubated at room temperature for 60–90 min. After that, the plate was washed with PBST buffer three times. The master mixture which contains the PARP buffer, PARP assay mixture, activated DNA and distilled water was added to each well then, the inhibitor solution (test compound) was added. The reaction was initiated by adding PARP-2 enzyme to the wells and the plate was incubated for 1 h at room temperature. After 1 h, the reaction mixture was discarded, and the plate was washed with PBST buffer three times. Finally, the plate was treated with Streptavidin–Horseradish Peroxidase (HRP) and incubated for 30 min at room temperature and then washed with PBST buffer. The colorimetric HRP substrate was added to each well and incubated at room temperature until the positive control well developed blue color. Sulphuric acid was added to each well after the blue color development. The absorbance was read at 450 nm using UV/Vis spectrophotometer microplate reader.
Suppl. S2. In vitro PARP-2 enzyme inhibition assay
Researcher : Dr. Nadeen Ghobashy email:elghobashynadeen@gmail.com mob.01008873340
Reader : ROBONIK P2000 Eliza Reader wl 450 nm

T1 sequence (Q9UGN5 whole entry): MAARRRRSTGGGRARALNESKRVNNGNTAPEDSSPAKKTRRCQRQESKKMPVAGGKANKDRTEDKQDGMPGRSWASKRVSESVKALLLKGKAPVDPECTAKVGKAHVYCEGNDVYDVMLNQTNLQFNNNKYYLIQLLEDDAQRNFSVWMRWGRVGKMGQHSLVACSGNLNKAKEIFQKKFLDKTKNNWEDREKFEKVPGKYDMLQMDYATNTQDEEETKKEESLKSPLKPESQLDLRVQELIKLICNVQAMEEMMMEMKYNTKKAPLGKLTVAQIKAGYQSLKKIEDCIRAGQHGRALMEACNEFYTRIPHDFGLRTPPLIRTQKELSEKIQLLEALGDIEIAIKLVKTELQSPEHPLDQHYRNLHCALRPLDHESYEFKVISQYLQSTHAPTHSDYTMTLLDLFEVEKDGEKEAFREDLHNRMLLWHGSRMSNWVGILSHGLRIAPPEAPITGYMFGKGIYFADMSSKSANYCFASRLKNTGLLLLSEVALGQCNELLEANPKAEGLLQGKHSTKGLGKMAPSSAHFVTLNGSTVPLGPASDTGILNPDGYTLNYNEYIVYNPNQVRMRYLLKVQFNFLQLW

Row | SMILES | IC50 (MDA-MB-231) | melting point | %inh of PARP-2 (Table S2 raw data) (PARP-2 enzyme; conc 0.01 (ng/ml)) | %inh of PARP-2 (Table S2 raw data) (PARP-2 enzyme; conc 0.1 (ng/ml)) | %inh of PARP-2 (Table S2 raw data) (PARP-2 enzyme; conc 1 (ng/ml)) | %inh of PARP-2 (Table S2 raw data) (PARP-2 enzyme; conc 10 (ng/ml)) | IC50 (PARP-2 enzyme)
1 | Nc1ccc(-c2nc3cc(Cl)ccc3o2)cc1 [Compound 3, 4-(5-chlorobenzoxazol-2-yl)aniline] | 24 ± 1.8 µM | – | – | – | – | – | –
2 | O=C(CCl)Nc1ccc(-c2nc3cc(Cl)ccc3o2)cc1 [Compound 4, 2-chloro-N-(4-(5-chlorobenzoxazol-2-yl)phenyl)acetamide] | 43.2 ± 2.7 µM | 218 to 220 °C | – | – | – | – | –
3 | O=C(CCCl)Nc1ccc(-c2nc3cc(Cl)ccc3o2)cc1 [Compound 5, 3-chloro-N-(4-(5-chlorobenzoxazol-2-yl)phenyl)propanamide] | 55.7 ± 3.2 µM | 210 to 212 °C | – | – | – | – | –
4 | O=C(CN1CCCCC1)Nc1ccc(-c2nc3cc(Cl)ccc3o2)cc1 [Compound 6, N-(4-(5-chlorobenzoxazol-2-yl)phenyl)-2-(piperidin-1-yl)acetamide] | 42.5 ± 2.8 µM | 180 to 182 °C | – | – | – | – | –
5 | O=C(CN1CCOCC1)Nc1ccc(-c2nc3cc(Cl)ccc3o2)cc1 [Compound 7, N-(4-(5-chlorobenzoxazol-2-yl)phenyl)-2-morpholinoacetamide] | 51.6 ± 3 µM | 178 to 180 °C | – | – | – | – | –
6 | CN1CCN(CC(=O)Nc2ccc(-c3nc4cc(Cl)ccc4o3)cc2)CC1 [Compound 8, N-(4-(5-chlorobenzoxazol-2-yl)phenyl)-2-(4-methylpiperazin-1-yl)acetamide] | 30.9 ± 2.3 µM | 179 to 181 °C | – | – | – | – | –
7 | CCN1CCN(CC(=O)Nc2ccc(-c3nc4cc(Cl)ccc4o3)cc2)CC1 [Compound 9, N-(4-(5-chlorobenzoxazol-2-yl)phenyl)-2-(4-ethylpiperazin-1-yl)acetamide] | 39.5 ± 2.6 µM | 153 to 155 °C | – | – | – | – | –
8 | O=C(CN1CCN(Cc2ccccc2)CC1)Nc1ccc(-c2nc3cc(Cl)ccc3o2)cc1 [Compound 10, 2-(4-benzylpiperazin-1-yl)-N-(4-(5-chlorobenzoxazol-2-yl)phenyl)acetamide] | 71.7 ± 3.5 µM | 195 to 197 °C | – | – | – | – | –
9 | CCN1CCN(CCC(=O)Nc2ccc(-c3nc4cc(Cl)ccc4o3)cc2)CC1 [Compound 14, N-(4-(5-chlorobenzoxazol-2-yl)phenyl)-3-(4-ethylpiperazin-1-yl)propanamide] | 10.8 ± 0.9 µM | 167 to 169 °C | 33.28% | 46.83% | 75.72% | 90.54% | 0.084 ± 0.005 µM
10 | O=C(CCN1CCN(Cc2ccccc2)CC1)Nc1ccc(-c2nc3cc(Cl)ccc3o2)cc1 [Compound 15, 3-(4-benzylpiperazin-1-yl)-N-(4-(5-chlorobenzoxazol-2-yl)phenyl)propanamide] | 35.3 ± 2.5 µM | 182 to 184 °C | – | – | – | – | –
11 | O=C(CN1CCN(c2ccccc2)CC1)Nc1ccc(-c2nc3cc(Cl)ccc3o2)cc1 [Compound 16, N-(4-(5-chlorobenzoxazol-2-yl)phenyl)-2-(4-phenylpiperazin-1-yl)acetamide] | 78.8 ± 3.8 µM | 231 to 233 °C | – | – | – | – | –
12 | COc1ccccc1N1CCN(CC(=O)Nc2ccc(-c3nc4cc(Cl)ccc4o3)cc2)CC1 [Compound 17, N-(4-(5-chlorobenzoxazol-2-yl)phenyl)-2-(4-(2-methoxyphenyl)piperazin-1-yl)acetamide] | 48 ± 2.9 µM | 218 to 220 °C | – | – | – | – | –
13 | O=C(CCN1CCN(c2ccccc2)CC1)Nc1ccc(-c2nc3cc(Cl)ccc3o2)cc1 [Compound 18, N-(4-(5-chlorobenzoxazol-2-yl)phenyl)-3-(4-phenylpiperazin-1-yl)propanamide] | 19.2 ± 1.6 µM | 239 to 241 °C | – | – | – | – | –
14 | COc1ccccc1N1CCN(CCC(=O)Nc2ccc(-c3nc4cc(Cl)ccc4o3)cc2)CC1 [Compound 19, N-(4-(5-chlorobenzoxazol-2-yl)phenyl)-3-(4-(2-methoxyphenyl)piperazin-1-yl)propanamide] | 22.5 ± 1.9 µM | 211 to 213 °C | – | – | – | – | –
15 | O=C(CNCc1ccccc1)Nc1ccc(-c2nc3cc(Cl)ccc3o2)cc1 [Compound 20, 2-(benzylamino)-N-(4-(5-chlorobenzoxazol-2-yl)phenyl)acetamide] | 47.6 ± 2.8 µM | 158 to 160 °C | – | – | – | – | –
16 | O=C(CNCCc1ccccc1)Nc1ccc(-c2nc3cc(Cl)ccc3o2)cc1 [Compound 21, N-(4-(5-chlorobenzoxazol-2-yl)phenyl)-2-(phenethylamino)acetamide] | 12.2 ± 1 µM | 129 to 131 °C | 20.88% | 36.15% | 52.41% | 81.94% | 0.406 ± 0.022 µM
17 | O=C(CNCCCc1ccccc1)Nc1ccc(-c2nc3cc(Cl)ccc3o2)cc1 [Compound 22, N-(4-(5-chlorobenzoxazol-2-yl)phenyl)-2-((3-phenylpropyl)amino)acetamide] | 17.4 ± 1.4 µM | 93 to 95 °C | 27.08% | 33.43% | 58.97% | 86.49% | 0.267 ± 0.015 µM
18 | O=C(CCNCc1ccccc1)Nc1ccc(-c2nc3cc(Cl)ccc3o2)cc1 [Compound 23, 3-(benzylamino)-N-(4-(5-chlorobenzoxazol-2-yl)phenyl)propanamide] | 62.1 ± 3.4 µM | 109 to 111 °C | – | – | – | – | –
19 | O=C(CCNCCc1ccccc1)Nc1ccc(-c2nc3cc(Cl)ccc3o2)cc1 [Compound 24, N-(4-(5-chlorobenzoxazol-2-yl)phenyl)-3-(phenethylamino)propanamide] | 26.5 ± 2.1 µM | 73 to 75 °C | – | – | – | – | –
20 | O=C(CCNCCCc1ccccc1)Nc1ccc(-c2nc3cc(Cl)ccc3o2)cc1 [Compound 25, N-(4-(5-chlorobenzoxazol-2-yl)phenyl)-3-((3-phenylpropyl)amino)propanamide] | 15.6 ± 1.2 µM | 87 to 89 °C | 36.11% | 47.92% | 73.45% | 88.59% | 0.074 ± 0.004 µM
21 | CCN(CC)CC(=O)Nc1ccc(-c2nc3cc(Cl)ccc3o2)cc1 [Compound 26, N-(4-(5-chlorobenzoxazol-2-yl)phenyl)-2-(diethylamino)acetamide] | 18.6 ± 1.3 µM | 133 to 135 °C | 21.36% | 38.75% | 55.9% | 86.92% | 0.292 ± 0.016 µM
22 | [N-]=[N+]=Nc1ccc(-c2nc3cc(Cl)ccc3o2)cc1 [Compound 28, 2-(4-azidophenyl)-5-chlorobenzoxazole] | > 100 µM | 167 to 169 °C | – | – | – | – | –
23 | CCOC(=O)c1nnn(-c2ccc(-c3nc4cc(Cl)ccc4o3)cc2)c1C [Compound 29, Ethyl 1-(4-(5-chlorobenzoxazol-2-yl)phenyl)-5-methyl-1H-1,2,3-triazole-4-carboxylate] | 76 ± 3.8 µM | 251 to 253 °C | – | – | – | – | –
24 | CC(=O)c1nnn(-c2ccc(-c3nc4cc(Cl)ccc4o3)cc2)c1C [Compound 30, 1-(1-(4-(5-chlorobenzoxazol-2-yl)phenyl)-5-methyl-1H-1,2,3-triazol-4-yl)ethan-1-one] | 73.9 ± 3.6 µM | 212 to 214 °C | – | – | – | – | –
25 | CNC(=O)c1cc(Oc2ccc(NC(=O)Nc3ccc(Cl)c(C(F)(F)F)c3)cc2)ccn1 [Sorafenib, reference compound] | 7.47 ± 0.3 µM | – | – | – | – | – | –
